Source: ChEMBL document CHEMBL5108042, “Design and synthesis of eugenol/isoeugenol glycoconjugates and other analogues as antifungal agents against Aspergillus fumigatus” (RSC Med Chem, 2022)
≈ marks a conversion by molar mass, not a printed value. Calls of active or inactive are those of the source. No cut-off for these calls is given here.

What was measured:
Aspergillus fumigatus [1] = experiment: Antifungal activity against Aspergillus fumigatus ATCC 46645 assessed as inhibition of conidial and mycelial growth incubated for 5 days by CLSI protocol based microbroth dilution method; assay type: functional; details: ATCC 46645, 120 h, time 5 day
Aspergillus fumigatus [2] = experiment: Antifungal activity against Aspergillus fumigatus ATCC 46645 assessed as inhibition of fungal growth incubated for 5 days by CLSI protocol based microbroth dilution method; assay type: functional, organism-based; details: ATCC 46645, 120 h
Aspergillus fumigatus [3] = experiment: Antifungal activity against Aspergillus fumigatus ATCC 46645 assessed as absence of melanin layer at IC50 concentration by transmission electron microscopic analysis; assay type: functional, organism-based
Cell membrane = experiment: Induction of cell membrane disruption in Aspergillus fumigatus ATCC 46645 assessed as accumulation of cytoplasmic content at IC50 concentration by transmission electron microscopic analysis; assay type: subcellular
Aspergillus fumigatus [4] = experiment: Antifungal activity against Aspergillus fumigatus ATCC 46645 assessed as decrease in DHN-melanin content by measuring absorption spectra at optical density 275 nm at IC50 concentration incubated for 5 days by UV-vis spectrophotometric analysis; assay type: functional; details: time 5 day
Aspergillus fumigatus [5] = experiment: Antifungal activity against Aspergillus fumigatus ATCC 46645 assessed as decrease in number of conidia at IC50 concentration by scanning electron microscopic analysis; assay type: functional, organism-based
Aspergillus fumigatus [6] = experiment: Antifungal activity against Aspergillus fumigatus ATCC 46645 assessed as smooth conidial surface with absence of protrusions at IC50 concentration by scanning electron microscopic analysis; assay type: functional, organism-based
[7] = Cytotoxicity against human L132 cells assessed as inhibition of cell growth; assay type: toxicity, cell-based
Aspergillus fumigatus [8] = experiment: Antifungal activity against Aspergillus fumigatus ATCC 46645 assessed as decrease in DHN-melanin content at IC50 concentration incubated for 5 days by UV-vis spectrophotometric analysis; assay type: functional, organism-based; details: time 5.0 day
[9] = Selectivity index, ratio of CC50 for cytotoxicity against human L-132 cells assessed as inhibition of cell growth to IC50 for antifungal activity against Aspergillus fumigatus ATCC 46645 assessed as inhibition of fungal growth; assay type: toxicity, cell-based; details: read-out: Ratio IC50
Aspergillus fumigatus [10] = experiment: Antifungal activity against Aspergillus fumigatus ATCC 46645 assessed as decrease in conidia formation at IC50 concentration by UV-vis spectrophotometric analysis; assay type: functional, organism-based
Aspergillus fumigatus [11] = experiment: Antibiofilm activity against Aspergillus fumigatus ATCC 46645 at 243.60 to 304.5 uM incubated for 24 hrs by MTT assay; assay type: functional, organism-based; details: dose 243.6-304.5 µM
[12] = Cytotoxicity against human L132 cells assessed as inhibition of cell growth incubated for 24 hrs by MTT assay; assay type: toxicity, cell-based
Aspergillus fumigatus [13] = experiment: Antibiofilm activity against Aspergillus fumigatus ATCC 46645 assessed as absence of ECM on hyphae at 243.60 to 304.5 uM; assay type: functional, organism-based; details: dose 243.6-304.5 µM
Aspergillus fumigatus [14] = experiment: Antibiofilm activity against Aspergillus fumigatus ATCC 46645 assessed as absence of ECM on hyphae at 69.53 to 86.92 uM; assay type: functional, organism-based; details: dose 69.53-86.92 µM
Aspergillus fumigatus [15] = experiment: Antibiofilm activity against Aspergillus fumigatus ATCC 46645 at 69.53 to 86.92 uM incubated for 24 hrs by MTT assay; assay type: functional, organism-based; details: dose 69.53-86.92 µM

Row | Compound | MIC (Aspergillus fumigatus [1]) [µM] | IC50 (Aspergillus fumigatus [2]) [µM] | other results
1 | C/C=C/c1ccc(OCc2cn([C@@H]3O[C@H](COC(C)=O)[C@@H](O[C@@H]4O[C@H](COC(C)=O)[C@H](OC(C)=O)[C@H](OC(C)=O)[C@H]4OC(C)=O)[C@H](OC(C)=O)[C@H]3OC(C)=O)nn2)c(OC)c1 | > 20 | 14.5 | 
2 | C#CCOc1ccc(CC=C)cc1OC | > 20 | > 25 | 
3 | C=CCc1ccc(OCc2cn([C@@H]3O[C@H](COC(C)=O)[C@H](OC(C)=O)[C@H](OC(C)=O)[C@H]3OC(C)=O)nn2)c(OC)c1 | > 20 | 10.9 | 
4 | C=CCc1ccc(OCc2cn([C@@H]3O[C@H](COC(C)=O)[C@@H](O[C@@H]4O[C@H](COC(C)=O)[C@H](OC(C)=O)[C@H](OC(C)=O)[C@H]4OC(C)=O)[C@H](OC(C)=O)[C@H]3OC(C)=O)nn2)c(OC)c1 | > 20 | 14.5 | 
5 | C/C=C/c1ccc(OCc2cn([C@@H]3O[C@H](COC(=O)c4ccccc4)[C@H](OC(=O)c4ccccc4)[C@H](OC(=O)c4ccccc4)[C@H]3OC(=O)c3ccccc3)nn2)c(OC)c1 | > 20 | 15.2 | 
6 | C/C=C/c1ccc(OCc2cn([C@@H]3O[C@H](COC(C)=O)[C@@H](O[C@H]4O[C@H](COC(C)=O)[C@@H](OC(C)=O)[C@H](OC(C)=O)[C@H]4OC(C)=O)[C@H](OC(C)=O)[C@H]3OC(C)=O)nn2)c(OC)c1 | > 20 | 14.5 | 
7 | C#CCOc1ccc(CCC)cc1OC | > 20 | > 25 | 
8 | CCCc1ccc(OCc2cn([C@@H]3O[C@H](COC(C)=O)[C@@H](OC(C)=O)[C@H](OC(C)=O)[C@H]3OC(C)=O)nn2)c(OC)c1 | > 20 | > 25 | 
9 | C=CCc1ccc(OCc2cn([C@@H]3O[C@H](CO)[C@@H](O)[C@H](O)[C@H]3O)nn2)c(OC)c1 | > 20 | > 25 | 
10 | C#CCOc1ccc(/C=C/C)cc1OC | > 20 | > 25 | 
11 | C=CCc1ccc(OCc2cn([C@@H]3O[C@H](COC(C)=O)[C@@H](O[C@H]4O[C@H](COC(C)=O)[C@@H](OC(C)=O)[C@H](OC(C)=O)[C@H]4OC(C)=O)[C@H](OC(C)=O)[C@H]3OC(C)=O)nn2)c(OC)c1 | > 20 | 14.5 | 
12 | CCCc1ccc(OCc2cn([C@@H]3O[C@H](CO)[C@H](O)[C@H](O)[C@@H]3O)nn2)c(OC)c1 | > 20 | > 25 | 
13 | CCC(C)n1ncn(-c2ccc(N3CCN(c4ccc(OCC5COC(Cn6cncn6)(c6ccc(Cl)cc6Cl)O5)cc4)CC3)cc2)c1=O (configuration not stated) [ITRACONAZOLE] | 0.552 (≈ 0.39 µg/mL) |  | 
14 | C/C=C/c1ccc(O)c(OC)c1 | 3800 (≈ 624 µg/mL) | 1900 | Activity (Aspergillus fumigatus [3]): Active; Activity (Cell membrane): Active; Activity (Aspergillus fumigatus [4]): 0.399; Activity (Aspergillus fumigatus [5]): Active; Activity (Aspergillus fumigatus [6]): Active
15 | C[C@@H]1[C@H](O)[C@@H](C)/C=C/C=C/C=C/C=C/C=C/C=C/C=C/[C@H](O[C@@H]2O[C@H](C)[C@@H](O)[C@H](N)[C@@H]2O)C[C@@H]2O[C@](O)(C[C@@H](O)C[C@@H](O)[C@H](O)CC[C@@H](O)C[C@@H](O)CC(=O)O[C@H]1C)C[C@H](O)[C@H]2C(=O)O [AMPHOTERICIN B] | 0.216 (≈ 0.2 µg/mL) | 1.08 | Activity (Aspergillus fumigatus [4]): 1.126; CC50 [7]: 5.4 µM
16 | CCCc1ccc(O)c(OC)c1 | 15.5 (≈ 2.58 µg/mL) | 9.39 | Activity (Aspergillus fumigatus [3]): Active; Activity (Aspergillus fumigatus [8]): Active; selectivity ratio [9]: 16; Activity (Cell membrane): Active; Activity (Aspergillus fumigatus [4]): 0.176; Activity (Aspergillus fumigatus [5]): Active; Activity (Aspergillus fumigatus [6]): Active; Activity (Aspergillus fumigatus [10]): Active; Activity (Aspergillus fumigatus [11]): Active; CC50 at 24 h [12]: 150 µM; Activity (Aspergillus fumigatus [13]): Active
17 | C=CCc1ccc(O)c(OC)c1 [EUGENOL] | 3800 (≈ 624 µg/mL) | 1900 | 
18 | C=CCc1ccc(OCc2cn([C@@H]3O[C@H](COC(C)=O)[C@@H](OC(C)=O)[C@H](OC(C)=O)[C@H]3OC(C)=O)nn2)c(OC)c1 | 10.9 (≈ 6.25 µg/mL) | 5.42 | Activity (Aspergillus fumigatus [3]): Active; Activity (Aspergillus fumigatus [8]): Active; selectivity ratio [9]: 8.01; Activity (Cell membrane): Active; Activity (Aspergillus fumigatus [4]): 0.295; Activity (Aspergillus fumigatus [5]): Active; Activity (Aspergillus fumigatus [6]): Active; Activity (Aspergillus fumigatus [10]): Active; Activity (Aspergillus fumigatus [14]): Active; Activity (Aspergillus fumigatus [15]): Active; CC50 at 24 h [12]: 43.5 µM

The next lines start with results.

Row | MIC (Aspergillus fumigatus [1]) [µM] | Compound | IC50 (Aspergillus fumigatus [2]) [µM] | other results
19 | > 20 | CCCc1ccc(OCc2cn(C[C@@H](O)Cc3ccc(O[Si](C)(C)C(C)(C)C)c(OC)c3)nn2)c(OC)c1 | > 25 | 
20 | > 20 | C/C=C/c1ccc(OCc2cn(C[C@@H](O)Cc3ccc(O[Si](C)(C)C(C)(C)C)c(OC)c3)nn2)c(OC)c1 | > 25 | 
21 | > 20 | COc1cc(C[C@H](O)CN=[N+]=[N-])ccc1O[Si](C)(C)C(C)(C)C | > 25 | 
22 | > 20 | C/C=C/c1ccc(OCc2cn([C@@H]3O[C@H](COC(C)=O)[C@H](OC(C)=O)[C@H](OC(C)=O)[C@H]3OC(C)=O)nn2)c(OC)c1 | 10.9 | 
23 | > 20 | C/C=C/c1ccc(OCc2cn(C3O[C@@H](C)[C@H](OC(C)=O)[C@@H](OC(C)=O)[C@H]3OC(C)=O)nn2)c(OC)c1 (some centres not stated) | 12.1 | 
24 | > 20 | C/C=C/c1ccc(OCc2cn([C@@H]3O[C@H](COC(C)=O)[C@@H](OC(C)=O)[C@H](OC(C)=O)[C@H]3OC(C)=O)nn2)c(OC)c1 | 21.7 | 
25 | > 20 | C=CCc1ccc(O[Si](C)(C)C(C)(C)C)c(OC)c1 | > 25 | 
26 | > 20 | COc1cc(C[C@H](O)CO)ccc1O[Si](C)(C)C(C)(C)C | > 25 | 
27 | > 20 | C=CCc1ccc(OCc2cn(C[C@@H](O)Cc3ccc(O[Si](C)(C)C(C)(C)C)c(OC)c3)nn2)c(OC)c1 | > 25 | 
